This is an account of results in ChEMBL document CHEMBL1212929, “Glucosylated deferiprone and its brain uptake: implications for developing glucosylated hydroxypyridinone analogues intended to cross the blood-brain barrier” (J Med Chem, 2010).

Where only a bound is given, the exact number is not on record here.

Series [1] can be described thus: Biodistribution in Dunkin-Hartley guinea pig brain parenchyma at 800 uM, iv after 20 mins using [3H]mannitol vascular space marker by scintillation counting. It is filed as ADME, organism-based, Cavia porcellus. As to conditions: in vivo.
The nature of series [2]: Biodistribution in Dunkin-Hartley guinea pig brain at 800 uM, iv after 20 mins using [3H]mannitol vascular space marker by scintillation counting. The series is classed as ADME, organism-based, Cavia porcellus. As to conditions: in vivo.

Regarding `Cc1c(O[C@@H]2O[C@H](CO)[C@@H](O)[C@H](O)[C@H]2O)c(=O)ccn1C`, the Drug uptake in series [1] and in series [2] was below 0.001 mL/g in each case.

As to `Cc1c(O)c(=O)ccn1C` [DEFERIPRONE], the Drug uptake turned out to be 0.044 mL/g in series [1] and 0.052 mL/g in series [2].
